Columns and labels:
[1] = Protein binding in human plasma assessed as unbound fraction at 2 uM by rapid equilibrium dialysis method; assay type: ADME, cell-free
[2] = Lipophilicity, logD of the compound at pH 7.6 by shake flask assay; assay type: physicochemical; settings: buffer
[3] = target: Dual specificity mitogen-activated protein kinase kinase 2 (Homo sapiens, UniProt P36507); assay: Binding affinity to wild-type human full length MEK2 (M1 to V400 residues) expressed in mammalian expression system by Kinomescan method
Sequence of Dual specificity mitogen-activated protein kinase kinase 2 (P36507 whole entry, the tested form may be a part): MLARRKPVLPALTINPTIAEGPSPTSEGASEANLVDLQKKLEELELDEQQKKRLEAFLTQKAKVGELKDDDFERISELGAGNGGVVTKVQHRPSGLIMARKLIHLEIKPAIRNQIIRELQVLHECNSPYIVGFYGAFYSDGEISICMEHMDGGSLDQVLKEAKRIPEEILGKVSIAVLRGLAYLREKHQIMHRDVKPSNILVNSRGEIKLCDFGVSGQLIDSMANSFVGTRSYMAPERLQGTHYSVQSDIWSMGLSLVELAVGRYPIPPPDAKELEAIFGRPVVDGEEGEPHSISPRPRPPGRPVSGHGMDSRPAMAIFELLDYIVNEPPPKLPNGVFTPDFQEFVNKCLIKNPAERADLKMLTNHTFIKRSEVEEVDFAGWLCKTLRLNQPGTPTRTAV

[4] = target: Proto-oncogene tyrosine-protein kinase Src (Homo sapiens, UniProt P12931); assay: Binding affinity to wild-type human partial length SRC (L240 to L536 residues) expressed in bacterial expression system by Kinomescan method
Sequence of Proto-oncogene tyrosine-protein kinase Src (P12931 2-536 limits assumed): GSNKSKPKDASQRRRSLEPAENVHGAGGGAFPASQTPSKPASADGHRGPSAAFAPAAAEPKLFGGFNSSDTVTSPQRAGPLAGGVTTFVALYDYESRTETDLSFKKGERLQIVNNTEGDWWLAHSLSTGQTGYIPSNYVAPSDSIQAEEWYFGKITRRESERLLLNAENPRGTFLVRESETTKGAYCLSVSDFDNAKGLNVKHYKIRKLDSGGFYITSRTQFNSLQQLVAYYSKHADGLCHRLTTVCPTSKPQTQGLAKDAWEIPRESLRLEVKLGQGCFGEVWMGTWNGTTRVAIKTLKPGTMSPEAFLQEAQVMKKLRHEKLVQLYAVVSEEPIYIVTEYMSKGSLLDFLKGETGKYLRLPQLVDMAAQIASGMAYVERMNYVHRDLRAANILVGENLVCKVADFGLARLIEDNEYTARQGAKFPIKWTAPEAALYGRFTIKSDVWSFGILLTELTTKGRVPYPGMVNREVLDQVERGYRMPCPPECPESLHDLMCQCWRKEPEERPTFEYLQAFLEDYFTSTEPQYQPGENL

[5] = Volume of distribution at steady state in cynomolgus monkey at 5 mg/kg, po; assay type: ADME, organism-based, Macaca fascicularis; settings: in vivo
[6] = Volume of distribution at steady state in Beagle dog at 5 mg/kg, po; assay type: ADME, organism-based, Canis lupus familiaris; settings: in vivo
[7] = Hepatotoxicity in rat primary cells assessed as change in urea level for 10 days; assay type: toxicity, cell-based, Hepatocyte; settings: hepatocytes, 240 h, time 10 day
[8] = target: Sodium channel protein type 5 subunit alpha (Homo sapiens, UniProt Q14524); assay: Inhibition of tonic human Nav1.5; assay type: toxicity
Sequence of Sodium channel protein type 5 subunit alpha (Q14524 whole entry): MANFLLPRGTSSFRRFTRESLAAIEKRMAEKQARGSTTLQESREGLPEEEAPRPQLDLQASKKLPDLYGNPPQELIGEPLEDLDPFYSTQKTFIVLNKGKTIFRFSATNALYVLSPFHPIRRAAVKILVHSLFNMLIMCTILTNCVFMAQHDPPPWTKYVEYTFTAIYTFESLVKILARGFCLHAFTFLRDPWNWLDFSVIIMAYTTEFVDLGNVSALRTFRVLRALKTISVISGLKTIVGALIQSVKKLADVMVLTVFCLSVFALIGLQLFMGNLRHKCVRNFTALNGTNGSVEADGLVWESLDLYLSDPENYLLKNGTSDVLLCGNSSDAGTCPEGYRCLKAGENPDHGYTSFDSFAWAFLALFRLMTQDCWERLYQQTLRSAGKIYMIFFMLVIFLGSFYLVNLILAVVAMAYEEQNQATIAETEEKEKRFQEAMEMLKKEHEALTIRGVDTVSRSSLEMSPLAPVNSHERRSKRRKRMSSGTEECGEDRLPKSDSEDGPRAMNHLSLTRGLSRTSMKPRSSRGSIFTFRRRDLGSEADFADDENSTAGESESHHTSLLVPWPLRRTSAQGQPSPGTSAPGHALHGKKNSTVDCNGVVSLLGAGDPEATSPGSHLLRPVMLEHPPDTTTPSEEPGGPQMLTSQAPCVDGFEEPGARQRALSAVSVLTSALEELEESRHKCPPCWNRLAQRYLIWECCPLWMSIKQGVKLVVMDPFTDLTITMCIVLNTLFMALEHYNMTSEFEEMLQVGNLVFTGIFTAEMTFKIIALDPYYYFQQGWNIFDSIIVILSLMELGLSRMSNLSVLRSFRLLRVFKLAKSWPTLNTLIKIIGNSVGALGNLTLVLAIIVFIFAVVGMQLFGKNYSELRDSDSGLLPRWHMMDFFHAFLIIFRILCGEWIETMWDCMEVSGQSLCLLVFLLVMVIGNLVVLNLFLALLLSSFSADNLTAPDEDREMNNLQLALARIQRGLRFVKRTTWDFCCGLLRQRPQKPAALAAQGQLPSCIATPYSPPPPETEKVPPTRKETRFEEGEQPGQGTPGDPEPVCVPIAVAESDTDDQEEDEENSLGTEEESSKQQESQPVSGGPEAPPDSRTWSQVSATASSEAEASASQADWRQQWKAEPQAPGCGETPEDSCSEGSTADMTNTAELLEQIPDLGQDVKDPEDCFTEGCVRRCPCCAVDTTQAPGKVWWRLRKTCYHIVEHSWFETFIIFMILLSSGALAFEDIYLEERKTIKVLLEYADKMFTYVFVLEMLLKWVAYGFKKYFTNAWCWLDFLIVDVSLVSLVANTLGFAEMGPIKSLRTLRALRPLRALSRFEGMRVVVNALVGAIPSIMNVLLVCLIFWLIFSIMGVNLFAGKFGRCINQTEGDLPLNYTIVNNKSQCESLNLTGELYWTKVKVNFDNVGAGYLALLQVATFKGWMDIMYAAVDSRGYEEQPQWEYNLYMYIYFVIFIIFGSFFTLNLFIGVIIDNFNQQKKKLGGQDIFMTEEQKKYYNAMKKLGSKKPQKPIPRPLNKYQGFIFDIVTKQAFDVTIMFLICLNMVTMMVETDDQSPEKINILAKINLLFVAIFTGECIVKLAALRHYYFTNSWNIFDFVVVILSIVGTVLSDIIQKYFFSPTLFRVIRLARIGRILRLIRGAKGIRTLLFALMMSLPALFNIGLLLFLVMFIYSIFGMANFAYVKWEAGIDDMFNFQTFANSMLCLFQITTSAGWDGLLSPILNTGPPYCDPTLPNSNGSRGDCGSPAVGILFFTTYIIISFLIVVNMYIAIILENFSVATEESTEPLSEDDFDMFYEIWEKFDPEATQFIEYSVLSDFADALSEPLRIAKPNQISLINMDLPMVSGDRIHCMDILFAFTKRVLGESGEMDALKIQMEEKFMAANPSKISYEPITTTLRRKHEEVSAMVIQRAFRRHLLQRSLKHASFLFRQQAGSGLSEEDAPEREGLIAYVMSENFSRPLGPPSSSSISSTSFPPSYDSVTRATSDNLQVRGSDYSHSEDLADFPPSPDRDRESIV

[9] = In vivo toxicity in Sprague-Dawley rat assessed as compound related toxicity at 500 mg/kg after 28 days; assay type: organism-based; settings: 672 h, time 28 day
Cynomolgus monkey = assay: In vivo toxicity in cynomolgus monkey assessed as compound related pathology at 250 mg/kg after 28 days; assay type: organism-based, Macaca fascicularis; settings: 672 h, time 28 day
[10] = In vivo inhibition of BTK-dependent B cell activation in C57BL/6 mouse immunized with NP-Ficoll assessed as reduction in anti-NP IgM antibody titer at 1 mg/kg, po BID dosed for 10 days; assay type: functional; parameters: scale not given: the % may be the effect or the level left; settings: time 10 day
[11] = In vivo inhibition of BTK-dependent B cell activation in C57BL/6 mouse immunized with NP-Ficoll assessed as reduction in anti-NP IgM antibody titer at 0.1 mg/kg, po BID dosed for 10 days; assay type: functional; parameters: scale not given: the % may be the effect or the level left; settings: time 10 day
[12] = In vivo toxicity in Sprague-Dawley rat assessed as NOAEL after 28 days; assay type: organism-based; settings: time 28 day
Cytochrome P450 2C9 = Cytochrome P450 2C9 (Homo sapiens, UniProt P11712); assay: Inhibition of CYP2C9 in human liver microsomes at 10 to 50 uM; assay type: ADME; settings: dose 10-50 µM
Sequence of Cytochrome P450 2C9 (P11712 whole entry): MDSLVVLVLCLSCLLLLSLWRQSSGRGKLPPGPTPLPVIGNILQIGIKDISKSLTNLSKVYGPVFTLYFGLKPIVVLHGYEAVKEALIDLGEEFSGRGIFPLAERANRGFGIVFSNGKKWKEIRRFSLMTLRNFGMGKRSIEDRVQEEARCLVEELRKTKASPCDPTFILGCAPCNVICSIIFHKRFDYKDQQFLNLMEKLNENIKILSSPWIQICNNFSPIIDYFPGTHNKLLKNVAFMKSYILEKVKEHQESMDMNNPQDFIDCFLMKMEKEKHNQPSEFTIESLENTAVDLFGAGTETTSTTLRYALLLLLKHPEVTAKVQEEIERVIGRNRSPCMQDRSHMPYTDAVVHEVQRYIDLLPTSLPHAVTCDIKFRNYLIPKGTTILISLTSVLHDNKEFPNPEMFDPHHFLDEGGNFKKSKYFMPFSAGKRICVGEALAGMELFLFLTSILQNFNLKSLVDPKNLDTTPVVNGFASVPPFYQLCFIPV

[13] = In vivo toxicity in cynomolgus monkey assessed as NOAEL after 28 days; assay type: organism-based, Macaca fascicularis; settings: time 28 day
[14] = Drugmetabolism in cynomolgus monkey liver microsomes assessed as metabolite formation; assay type: ADME, Macaca fascicularis, Microsome
Liver = assay: Drugmetabolism in human liver microsomes assessed as metabolite formation; assay type: ADME, Microsome
[15] = Drugmetabolism in human hepatocytes assessed as metabolite formation; assay type: ADME, cell-based, Hepatocyte

fraction unbound at 2 µM [1]: 0.26
logD [2]: 2.2
Kd [3]: 200 nM
Kd [4]: 320 nM
Vdss [5]: 0.7 L/kg
Vdss [6]: 1.7 L/kg
inhibition (INH) (Cytochrome P450 2C9): Not Active
Drug metabolism [14]: Metabolite_Notdetected
Drug metabolism (Liver): Metabolite_Notdetected
Drug metabolism [15]: Metabolite_Notdetected
SMILES: Cn1cc(Nc2nccc(-c3ccc4c(c3)CN(C3COC3)CC[C@H]4NC(=O)c3cn(C(C)(C)C)nn3)n2)cn1 [BIIB-091]
Activity [7]: Non-Toxic
IC50 [8]: > 25000 nM
Activity [9]: Non-Toxic
Activity (Cynomolgus monkey): Non-Toxic
Activity [10]: 59%
Activity [11]: 44%
NOAEL at 672 h [12]: 500 mg/kg
NOAEL at 672 h [13]: 250 mg/kg
